Assay results reported in patent US4895842A, “Phenylalanine derivative and proteinase inhibitor” (Shosuke Okamoto, priority 1985, dated 1990).
Where a name gives a salt, the structure may show the parent alone. Read-outs that look alike come from different tables or passages of the source.

Key:
human plasma kallikrein = human plasma kallikrein (Homo sapiens, UniProt P03952); assay: Anti-plasma kallikrein activity: inhibition of S-2302 decomposition; type: biochemical
Method: Determination of inhibition activity for S-2302 decomposition
An inhibitor sample is dissolved in a 0.05M Tris-hydrochloric acid buffer solution (pH=7.8) to make the total volume to 400 μl. To this solution, 50 μl of a 2 mM S-2302 solution is added and the mixture is incubated at a temperature of 37° C. for 5 minutes in a constant temperature bath. Then, 50 μl of a 0.12 unit/ml human plasma kallikrein is added and the mixture is incubated at a temperature of 37° C. for 5 minutes. Thereafter, 50 μl of 50% acetic acid is added to terminate the reaction. The absorbance of the p-nitroaniline formed in the reaction mixture is measured at 405 nm. Thus, the concentration I50 (μmol) of the inhibitor sample, at which the absorbance is one half (i.e., 1/2) of that obtained in the absence of the inhibitor sample, is determined.

human plasmin [1] = molecular target: T1, human plasmin (Homo sapiens, UniProt P00747); assay: Antiplasmin activity: inhibition of fibrin decomposition; type: biochemical; details: read-out: Plasmin Fibrin (I50)
Summary of the method: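 Inhibitor in 0.18 M borate–physiological saline buffer, pH 7.4, received bovine fibrinogen (0.2% solution), human plasmin (0.3 casein unit/ml solution) and bovine thrombin (50 unit/ml solution) at 37 °C. Time for the resulting fibrin clot to dissolve was recorded.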

bovine thrombin [2] = molecular target: T2, bovine thrombin (Bos taurus, UniProt P00735); assay: Antithrombin activity: inhibition of S-2238 decomposition; type: biochemical
Summary of the method: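 Inhibitor in 0.05 M Tris-HCl, pH 8.3, preincubated with S-2238 (0.2 mM stock) for 5 min at 37 °C. Bovine thrombin (0.2 unit/ml stock) then added, and p-nitroaniline release followed at 405 nm by initial velocity at 37 °C. I50 is the concentration halving the rate.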

bovine thrombin [3] = molecular target: T2, bovine thrombin; assay: Antithrombin activity: inhibition of fibrin formation from fibrinogen; type: biochemical
Summary of the method: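 Inhibitor in 0.18M borate-saline buffer pH 7.4 mixed with 0.2% bovine fibrinogen and 4 unit/ml bovine thrombin (stock levels) at 37° C; clotting time measured. I50 is the inhibitor concentration doubling coagulation time versus uninhibited control.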

human urokinase = human urokinase (Homo sapiens, UniProt P00749); assay: biochemical
Summary of the method: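 Inhibitor in 0.05M Tris-HCl pH 8.8 preincubated 5 min at 37° C with S-2444 (1 mM solution added), then human urokinase (500 unit/ml solution) added for 5 min at 37° C; stopped with 50% acetic acid. p-Nitroaniline read at 405 nm; I50 is concentration halving absorbance versus no inhibitor.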

human plasmin [4] = molecular target: T1, human plasmin; assay: biochemical; details: read-out: Plasmin S-2251 (I50)
Summary of the method: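 Inhibitor in 0.05M Tris-HCl buffer, pH 7.4, was incubated with human plasmin added at 0.2 casein unit/ml (stock) at 37° C for 4 minutes, then stopped with 50% acetic acid. I50 (μmol) is the inhibitor concentration giving half the absorbance obtained without inhibitor.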

bovine trypsin = molecular target: T3, bovine trypsin (Bos taurus, UniProt P00760); assay: Antitrypsin activity: inhibition of S-2238 decomposition; type: biochemical
T3 sequence (P00760 24-246): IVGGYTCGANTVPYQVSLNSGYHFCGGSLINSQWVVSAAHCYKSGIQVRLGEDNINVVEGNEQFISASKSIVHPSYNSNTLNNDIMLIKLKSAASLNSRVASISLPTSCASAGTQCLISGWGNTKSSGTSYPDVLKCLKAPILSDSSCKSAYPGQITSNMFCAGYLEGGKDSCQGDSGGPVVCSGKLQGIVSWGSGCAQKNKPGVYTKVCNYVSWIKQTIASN
Method: Determination of inhibition activity against S-2238 decomposition
An inhibitor sample is dissolved in a 0.05M Tris-imidazole buffer solution (pH=8.1) and 125 μl of a 1 mM S-2238 solution is added to make the total volume to 1.20 ml. The mixture is incubated at a temperature of 37° C. for 5 minutes in a constant temperature bath. To this mixture, 0.05 ml of bovine trypsin is added and the absorbance, at 405 nm, of the p-nitroaniline formed per minute is determined at a temperature of 37° C. by using the so-called initial velocity method. Thus, the concentration I50 (μmol) of the inhibitor sample, at which the absorbance is one half (i.e., 1/2) of that obtained in the absence of the inhibitor sample, is determined.

[5] = Table 2, S-2302 substrate, pH 7.8, 37° C., read-out: Plasma Kallikrein S-2302 (I50)
[6] = Table 2, concentration at which fibrin dissolution time is extended twice, pH 7.4, 37° C.
[7] = Table 2, S-2238 substrate, pH 8.3, 37° C., read-out: Thrombin S-2238 (I50)
[8] = Table 2, S-2444 substrate, pH 8.8, 37° C., read-out: Urokinase S-2444 (I50)
[9] = Table 2, S-2238 substrate, pH 8.1, 37° C., read-out: Trypsin S-2238 (I50)
[10] = Table 4, comparative compounds of Table 3, fibrin dissolution time extended twice
[11] = Table 4, comparative compounds of Table 3, S-2238 substrate, pH 8.3, read-out: Thrombin S-2238 (I50)
[12] = Table 4, comparative compounds of Table 3, coagulation time extended twice, read-out: Thrombin Fibrinogen (I50)
[13] = Table 4, comparative compounds of Table 3, S-2251 substrate, pH 7.4, 37° C.
[14] = read-out: Thrombin Fibrinogen (I50), Table 2, concentration at which coagulation time of bovine fibrinogen is extended twice, pH 7.4, 37° C.
[15] = Table 2, 50% inhibition concentration, S-2251 substrate, pH 7.4, 37° C.

Chain of human plasma kallikrein (P03952 391-638 limits assumed): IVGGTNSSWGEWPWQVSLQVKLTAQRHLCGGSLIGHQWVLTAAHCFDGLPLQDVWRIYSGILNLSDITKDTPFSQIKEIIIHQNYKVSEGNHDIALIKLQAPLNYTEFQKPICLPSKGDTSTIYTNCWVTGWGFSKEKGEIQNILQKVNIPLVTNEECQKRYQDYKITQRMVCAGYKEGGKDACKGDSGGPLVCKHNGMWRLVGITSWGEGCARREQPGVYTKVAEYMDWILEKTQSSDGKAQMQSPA
Chain of human plasma kallikrein (P03952 20-390 partner limits assumed): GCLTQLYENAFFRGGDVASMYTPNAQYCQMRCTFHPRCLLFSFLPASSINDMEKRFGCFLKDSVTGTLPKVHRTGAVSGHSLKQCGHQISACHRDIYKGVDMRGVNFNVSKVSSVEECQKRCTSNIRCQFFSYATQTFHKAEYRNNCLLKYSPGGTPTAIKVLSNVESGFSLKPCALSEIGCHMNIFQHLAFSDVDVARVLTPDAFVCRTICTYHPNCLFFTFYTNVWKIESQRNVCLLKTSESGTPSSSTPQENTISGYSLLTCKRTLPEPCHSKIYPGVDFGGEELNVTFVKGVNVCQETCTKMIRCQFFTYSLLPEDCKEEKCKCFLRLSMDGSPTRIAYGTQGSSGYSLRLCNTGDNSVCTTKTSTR
T1 sequence (P00747 581-810 limits assumed): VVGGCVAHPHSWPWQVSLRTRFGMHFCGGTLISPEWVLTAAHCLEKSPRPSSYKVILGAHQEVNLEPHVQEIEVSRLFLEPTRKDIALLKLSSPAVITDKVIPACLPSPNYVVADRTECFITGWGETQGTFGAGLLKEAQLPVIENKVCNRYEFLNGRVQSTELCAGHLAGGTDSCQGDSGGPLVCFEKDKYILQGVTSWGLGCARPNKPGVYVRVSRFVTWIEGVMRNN
T1 sequence (P00747 97-580 partner limits assumed): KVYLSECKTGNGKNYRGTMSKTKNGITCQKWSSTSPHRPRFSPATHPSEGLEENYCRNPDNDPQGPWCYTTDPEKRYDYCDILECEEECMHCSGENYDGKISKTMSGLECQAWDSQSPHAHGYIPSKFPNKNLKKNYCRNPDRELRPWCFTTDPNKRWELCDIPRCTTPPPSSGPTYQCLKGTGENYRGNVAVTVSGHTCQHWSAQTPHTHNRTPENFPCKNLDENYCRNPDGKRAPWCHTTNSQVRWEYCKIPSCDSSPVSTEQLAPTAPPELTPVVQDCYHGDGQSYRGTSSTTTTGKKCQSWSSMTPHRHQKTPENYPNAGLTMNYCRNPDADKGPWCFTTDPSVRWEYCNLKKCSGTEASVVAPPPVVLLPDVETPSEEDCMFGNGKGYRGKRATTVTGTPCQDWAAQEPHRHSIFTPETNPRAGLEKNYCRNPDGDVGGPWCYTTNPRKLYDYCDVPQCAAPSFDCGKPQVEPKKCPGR

Row | SMILES | IC50 (human plasma kallikrein; [5]) [µM] | IC50 (human plasmin [1]; [6]) [µM] | IC50 (bovine thrombin [2]; [7]) [µM] | IC50 (bovine thrombin [3]) [µM] | IC50 (human urokinase; [8]) [µM] | IC50 (human plasmin [4]) [µM] | IC50 (bovine trypsin; [9]) [nM] | IC50 (bovine thrombin [2]) [µM] | IC50 (human plasma kallikrein; Table 4, comparative compounds of Table 3, S-2302 substrate, pH 7.8, read-out: Plasma Kallikrein S-2302 (I50)) [µM] | IC50 (human plasmin [1]; [10]) [µM] | IC50 (bovine thrombin [2]; [11]) [µM] | IC50 (bovine thrombin [3]; [12]) [µM] | IC50 (human urokinase; Table 4, comparative compounds of Table 3, S-2444 substrate, pH 8.8, read-out: Urokinase S-2444 (I50)) [µM] | IC50 (human plasmin [4]; [13]) [µM] | IC50 (bovine trypsin; Table 4, comparative compounds of Table 3, S-2238 substrate, pH 8.1, read-out: Trypsin S-2238 (I50)) [nM] | IC50 (bovine thrombin [3]; [14]) [µM] | IC50 (human plasmin [4]; [15]) [µM] | IC50 (human plasma kallikrein) [µM] | IC50 (human urokinase) [µM] | IC50 (bovine trypsin) [nM]
1 | NC[C@H]1CC[C@H](C(=O)N[C@@H](Cc2ccc(Oc3cc(Cl)ccc3[N+](=O)[O-])cc2)C(=O)Nc2ccncc2)CC1 [Compound No. 137, N-(trans-4-aminomethylcyclohexylcarbonyl)-4-(3-chloro-6-nitrophenoxy)-L-phenylalanine 4-pyridylamide dihydrochloride] | 0.66 | 0.58 | > 400 | > 200 | 37 | 0.9 | 1200 | – | – | – | – | – | – | – | – | – | – | – | – | –
2 | NC[C@H]1CC[C@H](C(=O)N[C@@H](Cc2ccccc2)C(=O)Nc2ccc(C(=O)c3ccccc3)cc2)CC1 [Compound No. 1] | 1.9 | 40 | > 100 | > 50 | 11 | 27 | 300 | – | – | – | – | – | – | – | – | – | – | – | – | –
3 | NC[C@H]1CC[C@H](C(=O)N[C@@H](Cc2ccc(OCc3ccccc3)cc2)C(=O)NC2CC3CCC2C3)CC1 (stereo partly drawn) [compound 64] | 2.3 | 0.49 | – | > 250 | 65 | 2.5 | 1100 | > 400 | – | – | – | – | – | – | – | – | – | – | – | –
4 | NCc1ccc(C(=O)N[C@@H](Cc2ccc(OCc3ccccc3)cc2)C(=O)NCCc2ccccc2)cc1 [compound 78] | 100 | 0.75 | – | > 50 | > 200 | 3.8 | 9200 | > 50 | – | – | – | – | – | – | – | – | – | – | – | –
5 | NCc1ccc(C(=O)NC(Cc2ccccc2)C(=O)N2CCCCC2)cc1 (stereo not drawn) [Table 3 Compound No. 3, reference compound] | – | – | – | – | – | – | – | – | > 1000 | > 1000 | > 1000 | > 1000 | > 1000 | > 1000 | > 300000 | – | – | – | – | –
6 | CCOC(=O)c1cccc(NC(=O)[C@H](Cc2ccc(OCc3ccccc3)cc2)NC(=O)[C@H]2CC[C@H](CN)CC2)c1 [compound 75] | 2.4 | 0.88 | > 125 | > 100 | 65 | 5.6 | 1100 | – | – | – | – | – | – | – | – | – | – | – | – | –
7 | CC(=O)c1ccc(NC(=O)[C@H](Cc2ccc(OCC(=O)c3ccccc3)cc2)NC(=O)[C@H]2CC[C@H](CN)CC2)cc1 [compound 30] | 0.37 | 0.95 | 280 | > 50 | 80 | 1.4 | 1000 | – | – | – | – | – | – | – | – | – | – | – | – | –
8 | NC[C@H]1CC[C@H](C(=O)N[C@@H](Cc2ccc(OCc3ccc(Cl)c(Cl)c3)cc2)C(=O)Nc2ccncc2)CC1 [compound 127] | 0.41 | 0.29 | > 200 | > 50 | 20 | 1.5 | 1800 | – | – | – | – | – | – | – | – | – | – | – | – | –
9 | NCc1ccc(C(=O)N[C@@H](Cc2ccc(OCc3ccccc3)cc2)C(=O)N2CCN(C(=O)c3ccccc3)CC2)cc1 [compound 73] | > 200 | 210 | > 400 | > 400 | > 200 | 220 | 450000 | – | – | – | – | – | – | – | – | – | – | – | – | –
10 | CC(=O)c1ccc(NC(=O)[C@H](Cc2ccc(OCc3cccc([N+](=O)[O-])c3)cc2)NC(=O)[C@H]2CC[C@H](CN)CC2)cc1 [compound 54] | 0.45 | 0.19 | > 200 | > 100 | 35 | 1 | 1000 | – | – | – | – | – | – | – | – | – | – | – | – | –
11 | NCc1ccc(C(=O)N[C@@H](Cc2ccc(OCc3ccccc3)cc2)C(=O)N2CCC(C(=O)c3ccccc3)CC2)cc1 [compound 76] | > 200 | 2.4 | > 50 | > 25 | > 250 | 5.8 | 38000 | – | – | – | – | – | – | – | – | – | – | – | – | –
12 | NC[C@H]1CC[C@H](C(=O)N[C@@H](Cc2ccc(OCc3ccccc3)cc2)C(=O)Nc2cccc([N+](=O)[O-])c2)CC1 [compound 44] | 1.2 | 0.95 | > 500 | > 100 | 60 | 3.8 | 1100 | – | – | – | – | – | – | – | – | – | – | – | – | –
13 | CC(=O)c1ccc(NC(=O)[C@H](Cc2ccc([N+](=O)[O-])cc2)NC(=O)[C@H]2CC[C@H](CN)CC2)cc1 [compound 130, N-(trans-4-aminomethylcyclohexylcarbonyl)-4-nitro-L-phenylalanine 4-acetylanilide hydrochloride] | 8.3 | 7.1 | > 400 | > 400 | 34 | 15 | 500 | – | – | – | – | – | – | – | – | – | – | – | – | –
14 | CC1CCC(NC(=O)[C@H](Cc2ccc(OCc3ccccc3)cc2)NC(=O)c2ccc(CN)cc2)CC1 (stereo partly drawn) [compound 38] | 60 | 0.41 | > 50 | > 50 | > 400 | 2.3 | 2500 | – | – | – | – | – | – | – | – | – | – | – | – | –
15 | CC1CCCC(NC(=O)[C@H](Cc2ccc(OCc3ccccc3)cc2)NC(=O)c2ccc(CN)cc2)C1C (stereo partly drawn) [compound 82] | 40 | 2.9 | > 50 | – | > 400 | – | 7000 | – | – | – | – | – | – | – | – | > 25 | 8.5 | – | – | –
16 | Cc1ccc(NC(=O)[C@H](Cc2ccc(OCc3ccccc3)cc2)NC(=O)[C@H]2CC[C@H](CN)CC2)cc1C [compound 58] | 2.8 | 0.72 | > 125 | > 50 | > 150 | 3.4 | 1300 | – | – | – | – | – | – | – | – | – | – | – | – | –
17 | CC(=O)c1ccc(NC(=O)[C@H](Cc2ccc(OCc3ccncc3)cc2)NC(=O)[C@H]2CC[C@H](CN)CC2)cc1 [compound 68] | 1.2 | 0.65 | > 400 | > 500 | 25 | 1.2 | 1000 | – | – | – | – | – | – | – | – | – | – | – | – | –
18 | CCOC(=O)C1CCCC(NC(=O)[C@H](Cc2ccc(OCc3cccc(Cl)c3)cc2)NC(=O)c2ccc(CN)cc2)C1 (stereo partly drawn) [compound 72] | 25 | 0.62 | > 50 | – | > 200 | – | 950 | – | – | – | – | – | – | – | – | > 25 | 2.1 | – | – | –
19 | NC[C@H]1CC[C@H](C(=O)N[C@@H](Cc2ccc(OCc3cccc(Cl)c3)cc2)C(=O)Nc2cccc(Cl)c2)CC1 [compound 66] | 0.54 | 0.092 | > 50 | > 50 | 350 | 0.8 | 3900 | – | – | – | – | – | – | – | – | – | – | – | – | –
20 | NC[C@H]1CC[C@H](C(=O)N[C@@H](Cc2ccc(OCc3ccccc3)cc2)C(=O)N2CCC(C(=O)c3ccccc3)CC2)CC1 [compound 48] | > 100 | 3.4 | – | > 100 | > 200 | 5.3 | 22000 | > 200 | – | – | – | – | – | – | – | – | – | – | – | –
21 | CC(=O)NC(Cc1ccc([N+](=O)[O-])cc1)C(=O)Nc1ccc([N+](=O)[O-])cc1 (stereo not drawn) [Table 3 Compound No. 4, reference compound] | – | – | – | – | – | – | – | – | – | > 100 | > 100 | > 100 | – | > 100 | – | – | – | > 100 | > 100 | > 150000
